Results: paper PMC6028563, “Probing Substituents in the 1- and 3-Position: Tetrahydropyrazino-Annelated Water-Soluble Xanthine Derivatives as Multi-Target Drugs With Potent Adenosine Receptor Antagonistic Activity” (Frontiers in Chemistry, 2018)
Values after ≈ are worked out from the molar mass of the structure shown. Where two headings read alike, the source gives them in different places.

How the values were obtained:
human A2A AR = molecular target: T1, human A2A AR (Homo sapiens, UniProt P29274); experiment: Radioligand binding assay at human A2A AR vs. [^3H]MSX-2; settings: CHO cell membranes, n = 3, read-out: Ki ± SEM, A2A vs. [^3H]MSX-2
T1 construct: expressed in transfected cells; host or cells: CHO cells
Procedure, shortened: (§1)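 Membranes were prepared from rat brain cortex for A1 and from rat striatum for A2A, then used in radioligand displacement. For the human receptors, CHO cells recombinantly expressing a single AR subtype supplied the membranes.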

human A2B AR = molecular target: T2, human A2B AR (Homo sapiens, UniProt P29275); experiment: Radioligand binding assay at human A2B AR vs. [^3H]PSB-603; settings: for Ki: CHO cell membranes, n = 2 (n = 3 where marked a), read-out: Ki ± SEM, A2B vs. [^3H]PSB-603; for inhibition at 1 µM: at 1,000 nM
T2 construct: expressed in transfected cells; host or cells: CHO cells
T2 sequence (P29275 1-332): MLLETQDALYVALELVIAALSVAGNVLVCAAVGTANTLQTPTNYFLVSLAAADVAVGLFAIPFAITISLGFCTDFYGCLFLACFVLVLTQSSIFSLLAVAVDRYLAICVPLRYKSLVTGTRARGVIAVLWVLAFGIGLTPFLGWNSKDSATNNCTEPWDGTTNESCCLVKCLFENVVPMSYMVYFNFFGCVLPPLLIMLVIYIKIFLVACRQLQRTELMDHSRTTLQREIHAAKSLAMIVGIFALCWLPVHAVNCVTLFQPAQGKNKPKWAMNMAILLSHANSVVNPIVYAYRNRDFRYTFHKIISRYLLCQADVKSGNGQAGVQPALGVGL
Procedure, shortened: as §1

[1] = Thermodynamic solubility measurements; format: physicochemical; settings: thermodynamic from solid, thermodynamic solubility
Source text: This is expected to facilitate dissolution in the stomach. Depending on the substitution pattern they may also be well soluble at higher pH values (Brunschweiger et al., [2014]). In the present study we measured thermodynamic solubility of only very few compounds exemplarily (14a-e, 14g, 15f,g) and confirmed their high solubility at pH 1 (see Table S1 in Supplementary Material). Most of these compounds were still soluble at pH 7.4. The best soluble derivative was the 3-ethyl-1-methyl-8-m-fluorobenzyl derivative 14g with solubilities of >1.5 g/L (4.2 mM) at pH 1, 50 mg/L (0.14 mM) at pH 4, and 40 mg/L ([…]) at pH 7.4.
Table S1. Solubility of selected compounds at three different pH values (in mg/mL).a
Compound pH 1 pH 4 pH 7.4
adetermined by thermodynamic solubility measurements.

recombinant human MAO-A = molecular target: T3, recombinant human MAO-A (Homo sapiens, UniProt P21397); experiment: Monoamine oxidase assay (Amplex Red), MAO-A; format: biochemical
T3 construct: purchased Sigma-Aldrich M7316; host or cells: baculovirus-infected insect cells
T3 sequence (P21397 1-527): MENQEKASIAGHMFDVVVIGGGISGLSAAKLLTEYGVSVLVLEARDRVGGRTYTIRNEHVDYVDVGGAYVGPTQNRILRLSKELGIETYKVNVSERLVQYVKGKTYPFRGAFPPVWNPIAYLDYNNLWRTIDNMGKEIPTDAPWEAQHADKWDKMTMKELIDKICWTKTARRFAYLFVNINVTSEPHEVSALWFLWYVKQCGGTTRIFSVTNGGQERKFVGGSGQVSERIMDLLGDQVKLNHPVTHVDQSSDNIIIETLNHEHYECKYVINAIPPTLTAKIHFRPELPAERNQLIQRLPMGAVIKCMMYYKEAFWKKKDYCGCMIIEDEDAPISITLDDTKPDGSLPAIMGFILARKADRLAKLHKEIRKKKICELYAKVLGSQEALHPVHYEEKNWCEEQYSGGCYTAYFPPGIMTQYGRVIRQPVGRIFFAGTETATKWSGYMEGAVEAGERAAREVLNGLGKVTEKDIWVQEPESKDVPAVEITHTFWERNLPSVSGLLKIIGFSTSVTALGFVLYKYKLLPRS
Procedure, shortened: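 Recombinant human MAO-A and MAO-B, expressed in baculovirus-infected insect cells, were assayed by Amplex Red fluorometric detection. Rat MAO-B inhibition used mitochondria-enriched fractions from male Sprague Dawley rat liver.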

[2] = read-out: % inhibition of radioligand binding at indicated concentration, A2B vs. [^3H]PSB-603
[3] = aqueous buffer, pH 4, read-out: Solubility, pH 4
[4] = aqueous buffer, pH 7.4, read-out: Solubility, pH 7.4
[5] = simulated gastric fluid, pH 1, read-out: Solubility, pH 1

T1 sequence (P29274 whole entry): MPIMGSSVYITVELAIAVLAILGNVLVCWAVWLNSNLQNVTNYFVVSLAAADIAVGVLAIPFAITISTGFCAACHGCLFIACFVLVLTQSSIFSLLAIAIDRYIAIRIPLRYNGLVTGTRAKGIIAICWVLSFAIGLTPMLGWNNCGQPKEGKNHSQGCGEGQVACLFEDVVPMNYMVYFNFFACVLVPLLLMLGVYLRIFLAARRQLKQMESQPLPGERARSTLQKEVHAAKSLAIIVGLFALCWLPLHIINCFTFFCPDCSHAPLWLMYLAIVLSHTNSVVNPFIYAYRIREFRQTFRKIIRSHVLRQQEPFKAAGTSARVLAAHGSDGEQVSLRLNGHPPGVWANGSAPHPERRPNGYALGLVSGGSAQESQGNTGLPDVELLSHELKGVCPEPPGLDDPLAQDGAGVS

Row | Ki (human A2A AR) | Ki (human A2B AR) | inhibition at 1 µM (human A2B AR; [2]) | solubility [1, 3] | solubility [1, 4] | solubility [1, 5] | inhibition at 0.1 µM (human A2B AR; at 100 nM, read-out: % inhibition of radioligand binding at indicated concentration, A2B vs. [^3H]PSB-603) | inhibition at 10 µM (recombinant human MAO-A; at 10,000 nM, read-out: % inhibition at indicated concentration, Human MAO-A) | IC50 (recombinant human MAO-A; n = 3, read-out: IC50 ± SEM, Human MAO-A) | SMILES
1 | 497 ± 62 nM | > 1000 nM | 18% | 0.9 µg/mL (≈ 2.15 µM) | 0.8 µg/mL (≈ 1.91 µM) | 200 µg/mL (≈ 478 µM) |  |  |  | CCn1c(=O)c2c(nc3n2CCN(Cc2ccccc2Br)C3)n(C)c1=O [Compound 14a, 8-(2-bromobenzyl)-3-ethyl-1-methyl-6,7,8,9-tetrahydropyrazino[2,1-f]purine-2,4(1H,3H)-dione]
2 | 1780 nM | > 100 nM |  | 2 µg/mL (≈ 4.91 µM) | 2 µg/mL (≈ 4.91 µM) | 400 µg/mL (≈ 982 µM) | 2% | 12% | > 10000 nM | CCn1c(=O)c2c(nc3n2CCN(Cc2cccc(C(F)(F)F)c2)C3)n(C)c1=O [Compound 14e, 3-ethyl-1-methyl-8-(3-(trifluoromethyl)benzyl)-6,7,8,9-tetrahydropyrazino[2,1-f]purine-2,4(1H,3H)-dione]
3 | 277 ± 59 nM | > 1000 nM | 27% | 2 µg/mL (≈ 4.75 µM) | 2 µg/mL (≈ 4.75 µM) | 600 µg/mL (≈ 1420 µM) |  |  |  | CCn1c(=O)c2c(nc3n2CCN(Cc2cccc(C(F)(F)F)c2)C3)n(CC)c1=O [Compound 15g, 1,3-diethyl-8-(3-(trifluoromethyl)benzyl)-6,7,8,9-tetrahydropyrazino[2,1-f]purine-2,4(1H,3H)-dione]
